Source: patent publication US8883512B1, “Method for diagnosing gestational diabetes, preeclampsia, and fetal growth restriction” (priority 2011, dated 2014)
Entries after “also recorded” stand apart in the source; their conditions may differ.

Columns and labels:
[1] = test system: pregnant Sprague-Dawley rats; assay: Streptozotocin (STZ) animal model of gestational diabetes and preeclampsia: blood glucose, liver enzymes, arterial pressure, fetal and placental weights; type: in vivo, rat
Experimental: Pregnant Sprague-Dawley rats on day 6 of gestation were randomly assigned to STZ at 75 mg/kg I.P. or saline-infusion. On day 19, carotid artery catheters were implanted for measurement of arterial pressure, after which the animals were sacrificed, fetal and placental weights determined and blood samples obtained to measure liver enzymes and glucose. Subsequently, using the same procedure, a separate group of pregnant rats (n=10/group) was randomly assigned to receive STZ at 75 mg/kg I.P. or saline infusion. Serum concentrations of retinol, retinoic acid, and retinyl esters were determined in these animals by HPLC on Day 20. Retinoid toxicity was defined as the percentage of retinyl esters >10%.
(§1) The specific aims of this second experiment were to test the hypothesis that complications associated with GDM could be ameliorated with the retinoic acid receptor-alpha (RAR-alpha) antagonist, Ro41-5253. On day 6 of gestation, Sprague-Dawley rats were randomly assigned to one of five groups: 1) saline-infused controls; 2) STZ, 75 mg/kg I.P.; 3) STZ, 50 mg/kg I.P.; 4) STZ, 75+Ro41-5253 (0.5 mg/kg I.P. daily for 10 d); or 5) STZ, 75+Ro41-5253 (1.0 mg/kg I.P. daily for 10 days). Ro41-5253 was provided as a gift from Roche. On day 19, after carotid artery catheters were implanted for measurement of arterial pressure, the animals were sacrificed, fetal and placental weights were determined, and blood samples were obtained to measure liver enzymes and glucose.

[2] = test system: pregnant Sprague-Dawley rats; assay: RAR-alpha antagonist Ro41-5253 in the STZ (75 mg/kg) model of gestational diabetes; type: in vivo, rat
Experimental: as §1

[3] = better designed (low bias) trials of antioxidant supplements; cited from earlier work
[4] = STZ 75 mg/kg, I.P. Ro41-5253, listed as retinoid receptor antagonist

Question: With `CN(N=O)C(=O)N[C@H]1C(O)O[C@H](CO)[C@@H](O)[C@@H]1O` (mixture of isomers) [STZ, streptozotocin] as the compound, how does the “blood glucose levels (mean)” value ([1]; STZ 75 mg/kg I.P. on gestation day 6, blood on day 19, saline controls 104) read?
Answer: 533 mg/dL

Question: What about the “pup weights (mean)” value ([1]; STZ 75 mg/kg I.P., controls 4.6) of the same compound?
Answer: 1.4 g

Question: And the “alanine aminotransferase (mean)” value ([1]; STZ 75 mg/kg I.P., controls 63)?
Answer: 326 U/L

Question: What about the “alkaline phosphatase (mean)” value ([1]; STZ 75 mg/kg I.P., controls 123) of the same compound?
Answer: 576 U/L

Question: What about the “asparate aminotransferase levels (mean)” value ([1]; STZ 75 mg/kg I.P., controls 152) of the same compound?
Answer: 842 U/L

Question: And the placental weights ([1]; STZ, day 19)?
Answer: unaffected

Question: What about the “fetus size versus controls” value ([1]; groups receiving 75 mg/kg of STZ alone) of the same compound?
Answer: smaller than controls

Question: And the arterial pressure ([1]; groups receiving both doses of STZ, P=0.1386)?
Answer: non-significant trend towards increased levels

Question: For `CCCCCCCOc1cc2c(cc1/C(C)=C/c1ccc(C(=O)O)cc1)C(C)(C)CCS2(=O)=O` [Ro41-5253], which “effect on blood glucose following STZ” value ([2]; Ro41-5253 0.5 mg/kg I.P. daily for 10 d, STZ 75 mg/kg) is on record?
Answer: not by the lower dose; also recorded: no effect

Question: What about the “effect on blood glucose following STZ” value ([2]; Ro41-5253 1.0 mg/kg I.P. daily for 10 days, STZ 75 mg/kg) of the same compound?
Answer: reduced; also recorded: decrease of approximately one-third

Question: What about the “reduction of alkaline phosphatase levels induced by STZ” value ([2]; STZ 75 mg/kg, FIG. 3) of the same compound?
Answer: about 20%

Question: What about the “effect on alanine aminotransferase (ALT) elevation following STZ” value ([2]; STZ 75 mg/kg, I.P. Ro41-5253) of the same compound?
Answer: markedly reduced (almost to control levels)

Question: And the “effect on aspartate aminotransferase (AST) elevation following STZ” value ([2]; STZ 75 mg/kg, I.P. Ro41-5253)?
Answer: markedly reduced (almost to control levels)

Question: And the “effect on alkaline phosphatase (AP) levels induced by STZ” value ([2]; STZ 75 mg/kg, I.P. Ro41-5253, listed as RAR-alpha antagonist)?
Answer: increased alkaline phosphatase levels in all animals, with or without

Question: And the “effect on alanine aminotransferase (ALT) elevation following STZ” value [2, 4]?
Answer: markedly reduced

Question: What about the “effect on aspartate aminotransferase (AST) elevation following STZ” value [2, 4] of the same compound?
Answer: markedly reduced

Question: And the placental weights ([2]; STZ model, day 19)?
Answer: unaffected

Question: And the “effect on trend towards increased arterial pressure” value ([2]; higher dose of STZ, doses investigated)?
Answer: did not appear to be ameliorated

Question: For `CC1=C(/C=C/C(C)=C/C=C/C(C)=C/C=C/C=C(C)/C=C/C=C(C)/C=C/C2=C(C)CCCC2(C)C)C(C)(C)CCC1` [beta-carotene], which “increased risk of mortality” value [3] is on record?
Answer: 7%

Question: For vitamin A, which “increased risk of mortality” value [3] is on record?
Answer: 16%

Question: With vitamin E as the compound, how does the “increased risk of mortality” value [3] read?
Answer: 4%
